From patent publication US20220395522A1, “Methods of Use of Glucosamine for Increasing Nitrogen Retention” (TSI Bioproducts (Xuzhou) Co., Ltd., priority 2021, published 2022)

Legend:
fecal microbiota = experiment: Fecal microbiota analysis (16S rRNA), alpha and beta diversity; type: in vivo, human
Procedure: To determine significant differences between bacterial alpha diversity metrics (the measure of microbiome diversity within a single sample), a paired t-test was used between alpha diversity values of different sample groups (p<0.05). Significant differences in beta diversity (the measure of similarity or dissimilarity of multiple samples) between groups was determined using the qiime diversity beta-group-significance command in QIIME2 as well, which performs pairwise Permutational Multivariate Analysis of Variance (PERMANOVA) tests on beta diversity distance matrices (p<0.05). Differential abundance of taxa between sample groups were evaluated using Multivariate Analysis by Linear Models (MaAsLin) in R version 4.0.2 using the Maaslin2 command in the Maaslin2 R library on rarified taxonomy data generated by QIIME2 (p<0.05). Additional evaluation of differential abundance of taxa was performed using Analysis of Composition of Microbiomes (ANCOM) using the qiime composition ancom command after collapsing the feature table to the family level (level 5) using the qiime taxa collapse command on QIIME2. Data visualization was performed using the ggplot2 package, with data frame manipulation commands from the dplyr package, within the tidyverse collection of R packages.
Stool specimens were collected at four time points throughout the entire study protocol. The first two samples were collected before and after the first supplementation period while the final two samples were collected before and after the second supplementation period. All stool specimens were collected no more than 24-hours prior to that study participant being scheduled to complete their laboratory visit. All samples were immediately frozen after sample collection by the study participants. […]
A fecal microbiota analysis was further conducted. […] The Qubit Fluorometer (Thermo Fisher Scientific, San Francisco, Calif.) was used to quantify PCR product concentrations prior to combining the PCR products in equal quantities for purification with the Wizard SV Gel and PCR Cleanup kit (Promega, Madison, Wis.). […]

[1] = Body mass, heart rate and blood pressure in randomized, double-blind, placebo-controlled, cross-over supplementation study; type: in vivo, human; details: GLU condition, mean ± SD
Procedure: A randomized, double-blind, placebo-controlled, cross-over study design was conducted on healthy males and females. Participants were instructed to report to a laboratory after observing an overnight (8 to 10-hour) fast while maintaining adequate hydration. Participants were asked to abstain from exercise and avoid alcohol and caffeine consumption for 12 hours prior to each study visit. All participants first completed an initial eligibility visit during which a comprehensive medical history, consent document, and body mass index (BMI) assessment were completed. Results from the BMI assessment was used to finalize eligibility. Once deemed eligible, participants were provided with supplies to begin the study protocol.
The remainder of the study consisted of two identical patterns of testing with the exception of what supplementation protocol was followed. FIG. 1 provides a flowchart of the experimental design. Prior to each visit, food and physical activity logs were completed encompassing four days prior to the scheduled laboratory visit. The four days consisted of two weekend days and two weekdays. Each participant reported to the laboratory for a baseline measurement of height, weight, heart rate, and blood pressure. During this visit, participants completed the Bristol Stool Chart and Gastrointestinal Symptom Rating Scale (GSRS) to assess bowel habits and potential gastrointestinal symptoms. Participants were given instructions on how to collect a stool sample and were instructed to do so within 24 hours of each planned study visit. At the completion of this study visit, participants were provided with their first assigned supplement (either PLA [placebo] or GLU [glucosamine]) and instructed to begin supplementation 21 days prior to their second visit. Participants were instructed to collect their second stool sample on the day of their final supplementation dose. On the morning of their second study visit, participants reported to the laboratory after following identical pre-study instructions as previous visits (i.e., fasting, abstention from caffeine and exercise). Study participants again completed assessments for height, weight, heart rate, blood pressure, and questionnaires regarding their bowel habits and gastrointestinal symptoms while also providing their second stool sample and turning in completed food and activity logs. A washout period lasting a minimum of 14 days and a maximum of 21 days separated each phase of the crossover as shown in FIG. 1.
In a double-blind manner, a glucosamine supplement (GLU) or a maltodextrin placebo (PLA) was distributed in identical opaque capsules to all participants. On a daily basis, participants were instructed to ingest three capsules, each containing 1,000 mg of glucosamine hydrochloride (GlucosaGreen®, TSI Group Ltd. MT, USA) or a placebo (maltodextrin) identical in appearance for a total of 21 days. Each visit at the beginning of the supplementation regimen (Visits 1 and 4, respectively; See FIG. 1) occurred on or before the first day of supplementation while the final day of supplementation occurred the day before each participant's follow-up visit for that study period (Visits 2 and 4, respectively). Participants were instructed to ingest the supplement 15-30 minutes before breakfast with eight fluid ounces of cold water. In the case of a missed dose, participants were instructed to consume the missed dose as soon as possible with a meal. […] The dose of maltodextrin used in the following examples was two to five-fold lower, respectively, than these investigations.
Height and weight were measured for every participant without shoes and in minimal clothing using a standardized wall-mounted stadiometer (Tanita, model #HR-200, Tokyo, Japan) and a self-calibrating digital scale (Tanita, model #BWB-627A Class III, Tokyo, Japan). Prior to heart rate and blood pressure measurements, participants rested in a seated position for five minutes. […]

[2] = Post 21 days, 3 x 1,000 mg/day oral

For `Cl.N[C@H]1C(O)O[C@H](CO)[C@@H](O)[C@@H]1O` (stereo partly drawn) [GLU, glucosamine hydrochloride], which “Other alpha diversity measures (Observed OTUs or Shannon Evenness)” value (fecal microbiota; Post vs Pre, paired t-test p>0.05) is on record?
Its value is “not significantly altered”.

And the “Changes in beta-diversity (unweighted Unifrac distances)” value (fecal microbiota; compared to baseline, PERMANOVA p>0.05)?
Its value is “not significantly different”.

What about the “Alpha diversity of fecal bacterial communities, Faith's Phylogenetic Diversity (PD)” value (fecal microbiota; following GLU consumption compared to baseline, paired t-test p=4.59E-03) of the same molecule?
The value was “significantly decreased”.

What about the “Diastolic BP” value [1, 2] of the same molecule?
The value was 77.0 ± 9.8 mmHg.

And the “Heart Rate” value [1, 2]?
The value was 63.1 ± 8.1 beats/min.

And the “Systolic BP” value [1, 2]?
Its value is 119.4 ± 10.8 mmHg.

And the “Diastolic BP” value ([1]; Pre (baseline))?
The value was 73.9 ± 9.3 mmHg.

What about the “Heart Rate” value ([1]; Pre (baseline)) of the same molecule?
The value was 66.8 ± 7.7 beats/min.

What about the “Systolic BP” value ([1]; Pre (baseline)) of the same molecule?
The value was 121.7 ± 14.2 mmHg.
